Key:
GIPR = target: T1, GIPR (Homo sapiens, UniProt P48546); experiment: β-arrestin 2 recruitment (BRET); type: cell-based; set-up: expressed in transfected cells; host or cells: HEK293T; settings: GIPR WT, HEK293T; for EC50: read-out: β-arrestin 2 recruitment pEC50 (converted); for Emax: HEK-293T
T1 sequence (P48546 22-466): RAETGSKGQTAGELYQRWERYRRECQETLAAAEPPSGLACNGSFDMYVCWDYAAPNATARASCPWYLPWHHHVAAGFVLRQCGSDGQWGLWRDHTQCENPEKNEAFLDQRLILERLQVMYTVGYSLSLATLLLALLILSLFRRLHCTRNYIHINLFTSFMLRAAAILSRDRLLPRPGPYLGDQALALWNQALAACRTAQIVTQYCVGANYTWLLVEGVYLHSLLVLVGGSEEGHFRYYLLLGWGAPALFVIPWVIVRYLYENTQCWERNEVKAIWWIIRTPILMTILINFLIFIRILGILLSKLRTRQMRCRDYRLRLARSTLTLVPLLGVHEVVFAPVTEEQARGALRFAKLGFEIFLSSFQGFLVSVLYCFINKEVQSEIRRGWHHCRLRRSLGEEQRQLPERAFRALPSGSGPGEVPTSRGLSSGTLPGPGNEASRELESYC
Procedure: After cells were grown for 24 h, transiently transfected cells were then seeded onto poly-D-lysine coated 96-well culture plates (50,000 cells/well) in DMEM with 10% FBS. Cells were grown for 20 h before incubation in assay buffer (HBSS supplemented with 10 mM HEPES, 0.1% BSA or 0.1% casein, pH 7.4) for 30 min at 37 °C. Coelentrazine-h (Yeasen Biotech) was added to a final concentration of 5 μM for 5 min before bioluminescence resonance energy transfer (BRET) readings were made using an EnVision plate reader (PerkinElmer). BRET baseline measurements were collected for 15 cycles prior to ligand addition. After which, BRET was measured for 55 cycles.

GLP-1R [1] = target: GLP-1R (Homo sapiens, UniProt P43220, Y148A); experiment: Whole-cell binding assay, competition with 125I-GLP-1(7-36)NH2; set-up: Flag; expressed in transfected cells; settings: GLP-1R Y148A, CHO-K1
Procedure: (§1) Human embryonic kidney 293 cells containing SV40 large T-antigen (HEK293T) were cultured in DMEM (Gibco) supplemented with 10% (v/v) fetal bovine serum (FBS, Gibco), 1 mM sodium pyruvate (Gibco) and 100 units/mL penicillin and 100 μg/mL streptomycin at 37 °C in 5% CO2. Chinese hamster ovary (CHO-K1) cells were cultured in F-12 (Gibco) containing 10% FBS, 100 units/mL penicillin and 100 μg/mL streptomycin at 37 °C in 5% CO2. For cAMP and receptor expression assays, HEK293T cells were seeded into 6-well cell culture plates at a density of 7 × 10^5 cells per well. After overnight incubation, cells were transfected with GIPR, GLP-1R or GCGR construct using Lipofectamine 2000 or Lipofectamine 3000 transfection reagent (Invitrogen). For whole-cell binding assay, CHO-K1 cells were seeded into 96-well fibronectin-treated cell culture plates at a density of 3 × 10^4 cells per well. After overnight incubation, cells were transfected with GIPR, GLP-1R or GCGR construct using Lipofectamine 2000 transfection reagent (Invitrogen). Following 24 h culturing, the transfected cells were ready for use.
(§2) For GLP-1R and GCGR, CHO-K1 cells (30,000 cells/well) were seeded into Isoplate-96 plates and incubated for 24 h at 37 °C in 5% CO2. The WT or mutant constructs were transiently transfected using Lipofectamine 2000 transfection reagent as previous described. They were then washed twice using F-12 with 0.1% BSA or 0.1% casein, 33 mM HEPES, and incubated for 2 h at 37 °C. […] Cells were washed three times with ice-cold PBS and lysed in PBS with 1% Triton X-100, 20 mM Tris-HCl. After addition of scintillation cocktail (PerkinElmer), radioactivity (CPM) was counted on a MicroBeta^2 microplate counter (PerkinElmer). Data were normalized to the WT response and analyzed using three-parameter logistic equation.

GLP-1R [2] = target: GLP-1R (Homo sapiens, UniProt P43220, W214A); experiment: as above; set-up: Flag; expressed in transfected cells; settings: GLP-1R W214A, CHO-K1
Procedure: as §1, §2

GCGR [3] = target: GCGR (Homo sapiens, UniProt P47871, Y202A); experiment: Whole-cell binding assay, competition with 125I-GCG; set-up: V5 (C); 6×His (C); expressed in transfected cells; host or cells: CHO-K1; settings: GCGR Y202A, CHO-K1
Method in brief: (§3)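 CHO-K1 cells transiently transfected with WT or mutant receptor constructs, washed in F-12 with 0.1% BSA or casein/33 mM HEPES and incubated 2 h at 37 °C. Bound radioactivity counted after Triton lysis; data normalized to WT and fitted to a three-parameter logistic equation.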

GCGR [4] = target: GCGR (Homo sapiens, UniProt P47871, W215A); experiment: as above; set-up: V5 (C); 6×His (C); expressed in transfected cells; host or cells: CHO-K1; settings: GCGR W215A, CHO-K1
Method in brief: as §3

GCGR [5] = target: GCGR (Homo sapiens, UniProt P47871, Q293A); experiment: as above; set-up: V5 (C); 6×His (C); expressed in transfected cells; host or cells: CHO-K1; settings: GCGR Q293A, CHO-K1
Method in brief: as §3

GCGR [6] = target: GCGR (Homo sapiens, UniProt P47871, R199A); experiment: as above; set-up: V5 (C); 6×His (C); expressed in transfected cells; host or cells: CHO-K1; settings: GCGR R199A, CHO-K1
Method in brief: as §3

GCGR [7] = target: GCGR (Homo sapiens, UniProt P47871, K205A); experiment: as above; set-up: V5 (C); 6×His (C); expressed in transfected cells; host or cells: CHO-K1; settings: GCGR K205A, CHO-K1
Method in brief: as §3

GCGR [8] = target: GCGR (Homo sapiens, UniProt P47871, Y145A); experiment: as above; set-up: V5 (C); 6×His (C); expressed in transfected cells; host or cells: CHO-K1; settings: GCGR Y145A, CHO-K1
Method in brief: as §3

[9] = read-out: binding pIC50 (converted)

GLP-1R (Homo sapiens, UniProt P43220, Y148A), sequence (P43220 24-463 Y148A): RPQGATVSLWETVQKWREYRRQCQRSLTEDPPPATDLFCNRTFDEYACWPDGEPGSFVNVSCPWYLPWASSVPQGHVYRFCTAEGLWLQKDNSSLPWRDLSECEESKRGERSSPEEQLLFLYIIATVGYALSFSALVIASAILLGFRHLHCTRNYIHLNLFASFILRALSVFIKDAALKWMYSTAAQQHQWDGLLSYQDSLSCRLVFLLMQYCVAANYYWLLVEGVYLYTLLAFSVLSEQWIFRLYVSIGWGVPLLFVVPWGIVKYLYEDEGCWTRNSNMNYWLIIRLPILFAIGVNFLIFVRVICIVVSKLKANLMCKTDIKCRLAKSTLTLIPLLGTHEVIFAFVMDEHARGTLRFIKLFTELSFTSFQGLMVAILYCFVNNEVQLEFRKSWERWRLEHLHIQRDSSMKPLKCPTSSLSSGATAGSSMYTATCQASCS
GLP-1R (Homo sapiens, UniProt P43220, W214A), sequence (P43220 24-463 W214A): as the sequence (P43220 24-463 Y148A) above, with A125Y, W191A counted along it
GCGR (Homo sapiens, UniProt P47871, W215A), sequence (P47871 26-477 W215A): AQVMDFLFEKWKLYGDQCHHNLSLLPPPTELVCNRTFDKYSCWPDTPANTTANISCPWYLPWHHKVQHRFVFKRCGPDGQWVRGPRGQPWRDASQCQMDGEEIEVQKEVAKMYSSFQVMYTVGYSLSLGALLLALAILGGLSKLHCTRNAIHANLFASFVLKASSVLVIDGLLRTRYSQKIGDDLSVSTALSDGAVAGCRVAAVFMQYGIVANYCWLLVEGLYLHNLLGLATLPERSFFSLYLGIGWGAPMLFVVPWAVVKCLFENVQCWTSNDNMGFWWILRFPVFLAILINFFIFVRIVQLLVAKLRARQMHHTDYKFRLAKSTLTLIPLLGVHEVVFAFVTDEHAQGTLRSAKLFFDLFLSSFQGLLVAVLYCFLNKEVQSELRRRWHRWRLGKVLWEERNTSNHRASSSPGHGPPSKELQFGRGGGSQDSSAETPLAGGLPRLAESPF
GCGR (Homo sapiens, UniProt P47871, K205A), sequence (P47871 26-477 K205A): as the sequence (P47871 26-477 W215A) above, with K180A, A190W counted along it
GCGR (Homo sapiens, UniProt P47871, Q293A), sequence (P47871 26-477 Q293A): as the sequence (P47871 26-477 W215A) above, with A190W, Q268A counted along it
GCGR (Homo sapiens, UniProt P47871, Y202A), sequence (P47871 26-477 Y202A): as the sequence (P47871 26-477 W215A) above, with Y177A, A190W counted along it
GCGR (Homo sapiens, UniProt P47871, R199A), sequence (P47871 26-477 R199A): as the sequence (P47871 26-477 W215A) above, with R174A, A190W counted along it
GCGR (Homo sapiens, UniProt P47871, Y145A), sequence (P47871 26-477 Y145A): as the sequence (P47871 26-477 W215A) above, with Y120A, A190W counted along it

Row | Structure (SMILES) | EC50 (GIPR; 0.1% casein) [nM] | Emax (GIPR; 0.1% BSA) [%] | Emax (GIPR; 0.1% casein) [%] | binding Span (GLP-1R [1]) [% WT] | binding Span (GLP-1R [2]) [% WT] | binding Span (GCGR [3]) [% WT] | IC50 (GCGR [3]; [9]) [nM] | binding Span (GCGR [4]) [% WT] | IC50 (GCGR [4]; [9]) [nM] | binding Span (GCGR [5]) [% WT] | IC50 (GCGR [5]; [9]) [nM] | binding Span (GCGR [6]) [% WT] | IC50 (GCGR [6]; [9]) [nM] | binding Span (GCGR [7]) [% WT] | IC50 (GCGR [7]; [9]) [nM] | binding Span (GCGR [8]) [% WT] | IC50 (GCGR [8]; [9]) [nM] | IC50 (GLP-1R [1]; [9]) [nM] | IC50 (GLP-1R [2]; [9]) [nM]
1 | CC[C@H](C)[C@H](NC(=O)[C@H](CC(C)C)NC(=O)[C@H](Cc1c[nH]c2ccccc12)NC(=O)[C@H](CCC(N)=O)NC(=O)[C@@H](NC(=O)[C@H](Cc1ccccc1)NC(=O)[C@H](C)NC(=O)[C@H](CCCCNC(=O)COCCOCCNC(=O)COCCOCCNC(=O)CC[C@H](NC(=O)CCCCCCCCCCCCCCCCCCC(=O)O)C(=O)O)NC(=O)[C@H](CCC(N)=O)NC(=O)[C@H](C)NC(=O)[C@@H](NC(=O)[C@H](CCCCN)NC(=O)[C@H](CC(=O)O)NC(=O)[C@H](CC(C)C)NC(=O)C(C)(C)NC(=O)[C@@H](NC(=O)[C@H](CO)NC(=O)[C@H](Cc1ccc(O)cc1)NC(=O)[C@H](CC(=O)O)NC(=O)[C@H](CO)NC(=O)[C@@H](NC(=O)[C@H](Cc1ccccc1)NC(=O)[C@@H](NC(=O)CNC(=O)[C@H](CCC(=O)O)NC(=O)C(C)(C)NC(=O)[C@@H](N)Cc1ccc(O)cc1)[C@@H](C)O)[C@@H](C)O)[C@@H](C)CC)[C@@H](C)CC)C(C)C)C(=O)N[C@@H](C)C(=O)NCC(=O)NCC(=O)N1CCC[C@H]1C(=O)N[C@@H](CO)C(=O)N[C@@H](CO)C(=O)NCC(=O)N[C@@H](C)C(=O)N1CCC[C@H]1C(=O)N1CCC[C@H]1C(=O)N1CCC[C@H]1C(=O)N[C@@H](CO)C(N)=O [Tirzepatide] | 18.6 | 53.4 ± 2.32 | 53.4 ± 1.93 | 12.31 ± 2.51 | 11.88 ± 1.32 | – | – | – | – | – | – | – | – | – | – | – | – | – | –
2 | CCCCCCCCCCCCCCCC(=O)N[C@@H](CCC(=O)NCCCC[C@H](NC(=O)[C@H](CC(=O)O)NC(=O)[C@H](CO)NC(=O)[C@@H](NC(=O)[C@H](Cc1ccccc1)NC(=O)[C@@H](NC(=O)CNC(=O)[C@H](CCC(N)=O)NC(=O)C(C)(C)NC(=O)[C@@H](N)Cc1c[nH]cn1)[C@@H](C)O)[C@@H](C)O)C(=O)N[C@@H](CO)C(=O)N[C@@H](CCCCN)C(=O)N[C@@H](Cc1ccc(O)cc1)C(=O)N[C@@H](CC(C)C)C(=O)N[C@@H](CC(=O)O)C(=O)N[C@@H](CCC(=O)O)C(=O)N[C@@H](CCCNC(=N)N)C(=O)N[C@@H](C)C(=O)N[C@@H](C)C(=O)N[C@@H](CCC(N)=O)C(=O)N[C@@H](CC(=O)O)C(=O)N[C@@H](Cc1ccccc1)C(=O)N[C@H](C(=O)N[C@@H](CCC(N)=O)C(=O)N[C@@H](Cc1c[nH]c2ccccc12)C(=O)N[C@@H](CC(C)C)C(=O)N[C@@H](CC(C)C)C(=O)N[C@@H](CC(=O)O)C(=O)NCC(=O)NCC(=O)N1CCC[C@H]1C(=O)N[C@@H](CO)C(=O)N[C@@H](CO)C(=O)NCC(=O)N[C@@H](C)C(=O)N1CCC[C@H]1C(=O)N1CCC[C@H]1C(=O)N1CCC[C@H]1C(=O)N[C@@H](CO)C(N)=O)C(C)C)C(=O)O [Peptide 20] | – | – | – | 8.73 ± 2.65 | 10.25 ± 1.71 | 5.12 ± 1.71 | 18.6 | 7.72 ± 2.74 | 145 | 135.17 ± 6.41 | 132 | 59.87 ± 5.43 | 178 | 130.88 ± 9.06 | 182 | 4.34 ± 3.92 | 0.457 | 15.5 | 17
3 | CC[C@H](C)[C@H](NC(=O)[C@H](CC(C)C)NC(=O)[C@H](Cc1c[nH]c2ccccc12)NC(=O)[C@H](CCC(N)=O)NC(=O)[C@@H](NC(=O)[C@H](Cc1ccccc1)NC(=O)[C@H](C)NC(=O)[C@H](CCCCN)NC(=O)[C@H](CCC(N)=O)NC(=O)[C@H](C)NC(=O)[C@@H](NC(=O)[C@H](CCCCN)NC(=O)[C@H](CC(=O)O)NC(=O)[C@H](CC(C)C)NC(=O)C(C)(C)NC(=O)[C@@H](NC(=O)[C@H](CO)NC(=O)[C@H](Cc1ccc(O)cc1)NC(=O)[C@H](CC(=O)O)NC(=O)[C@H](CO)NC(=O)[C@@H](NC(=O)[C@H](Cc1ccccc1)NC(=O)[C@@H](NC(=O)CNC(=O)[C@H](CCC(=O)O)NC(=O)C(C)(C)NC(=O)[C@@H](N)Cc1ccc(O)cc1)[C@@H](C)O)[C@@H](C)O)[C@@H](C)CC)[C@@H](C)CC)C(C)C)C(=O)N[C@@H](C)C(=O)NCC(=O)NCC(=O)N1CCC[C@H]1C(=O)N[C@@H](CO)C(=O)N[C@@H](CO)C(=O)NCC(=O)N[C@@H](C)C(=O)N1CCC[C@H]1C(=O)N1CCC[C@H]1C(=O)N1CCC[C@H]1C(=O)N[C@@H](CO)C(N)=O [Non-acylated tirzepatide] | 14.8 | 57.1 ± 1.97 | 59.8 ± 1.01 | – | – | – | – | – | – | – | – | – | – | – | – | – | – | – | –

Source: article PMC8881610 (Nature Communications, 2022)
